According to patent US20230089867A1, “CYCLIC PENTAMER COMPOUNDS AS PROPROTEIN CONVERTASE SUBTILISIN/KEXIN TYPE 9 (PCSK9) INHIBITORS FOR THE TREATMENT OF METABOLIC DISORDER” (Novartis AG, priority 2018, published 2023):

Target: human PCSK9 (Homo sapiens, UniProt Q8NBP7)
Assay: PCSK9 ligand binding TR-FRET assay (interference with binding of human PCSK9 to human LDLR)
Details: for Max % inhibition: PCSK9 FRET assay, efficacy (Amax), 100% = 1 uM unlabeled human PCSK9, 0% = DMSO; for IC50: TR-FRET, human PCSK9 Alexa Fluor 647 / human LDLR extracellular domain-Europium Kryptate, read-out: PCSK9 FRET Assay IC50
Procedure, shortened: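 Threefold compound dilutions were pre-incubated 30 min with PCSK9, after which 4 nM Europium Kryptate-tagged human LDLR ectodomain was added for a further 2 h.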

Sequence of human PCSK9 (Q8NBP7 153-692): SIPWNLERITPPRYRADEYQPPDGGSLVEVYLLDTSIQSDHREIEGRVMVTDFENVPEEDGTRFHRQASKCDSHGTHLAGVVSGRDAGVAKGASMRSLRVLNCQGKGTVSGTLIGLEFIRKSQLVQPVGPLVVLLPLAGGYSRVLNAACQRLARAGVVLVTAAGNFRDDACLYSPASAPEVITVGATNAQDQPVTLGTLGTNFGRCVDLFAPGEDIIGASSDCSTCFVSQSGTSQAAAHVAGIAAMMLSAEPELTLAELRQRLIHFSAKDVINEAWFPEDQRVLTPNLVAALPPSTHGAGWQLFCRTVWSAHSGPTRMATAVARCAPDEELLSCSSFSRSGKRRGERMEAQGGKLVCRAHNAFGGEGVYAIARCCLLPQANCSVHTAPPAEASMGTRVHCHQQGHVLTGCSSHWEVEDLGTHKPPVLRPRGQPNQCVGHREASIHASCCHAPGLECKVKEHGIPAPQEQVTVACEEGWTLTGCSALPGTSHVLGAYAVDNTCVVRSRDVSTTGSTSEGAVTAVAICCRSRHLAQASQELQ
Sequence of human PCSK9 (Q8NBP7 31-152 partner limits assumed): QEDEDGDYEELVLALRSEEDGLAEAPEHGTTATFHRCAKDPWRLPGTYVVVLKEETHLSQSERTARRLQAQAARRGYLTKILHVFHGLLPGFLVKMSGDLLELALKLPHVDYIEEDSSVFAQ

Structure (SMILES)	Max % inhibition [%]	IC50 [nM]
COC[C@@H]1NC(=O)[C@H](C)N(Cc2ccc(Cl)cc2Oc2ccc(-c3cnc(CN4CC5(COC5)C4)n3C)cc2)C(=O)C[C@@H](Cc2ccccc2)C(=O)N(C)[C@@H](C)CNC(=O)C[C@H](Cc2ccc(Cl)cc2)N(C)C1=O [Compound 189, (2S,5S,8S,13S,16R)-1-(2-(4-(2-(2-oxa-6-azaspiro[3.3]heptan-6-ylmethyl)-1-methyl-1H-imidazol-5-yl)phenoxy)-4-chlorobenzyl)-16-benzyl-8-(4-chlorobenzyl)-5-(methoxymethyl)-2,7,13,14-tetramethyl-1,4,7,11,14-pentaazacyclooctadecane-3,6,10,15,18-pentaone]	95.01	1.4
COC[C@@H]1NC(=O)[C@H](C)N(Cc2ccc(Cl)cc2Oc2ccc(-n3cnc(CN4CCCC4)c3C)cc2)C(=O)C[C@@H](Cc2ccccc2)C(=O)N(C)[C@@H](C)CNC(=O)C[C@H](Cc2ccc(Cl)cc2)N(C)C1=O [Compound 259, (2S,5S,8S,13S,16R)-16-benzyl-1-(4-chloro-2-(4-(5-methyl-4-(pyrrolidin-1-ylmethyl)-1H-imidazol-1-yl)phenoxy)benzyl)-8-(4-chlorobenzyl)-5-(methoxymethyl)-2,7,13,14-tetramethyl-1,4,7,11,14-pentaazacyclooctadecane-3,6,10,15,18-pentaone]	108.15	3.2
C[C@H]1CNC(=O)C[C@H](Cc2ccc(Cl)cc2)N(C)C(=O)[C@H](CO)NC(=O)[C@H](C)N(Cc2ccccc2OCC(=O)N2Cc3cccnc3C2)C(=O)C[C@@H](Cc2ccccc2)C(=O)N1C (stereo in doubt) [Compound 143, (2S,5S,8S,13S,16R)-16-benzyl-8-(4-chlorobenzyl)-5-(hydroxymethyl)-2,7,13,14-tetramethyl-1-(2-(2-oxo-2-(5H-pyrrolo[3,4-b]pyridin-6(7H)-yl)ethoxy)benzyl)-1,4,7,11,14-pentaazacyclooctadecane-3,6,10,15,18-pentaone]	49.36	774
COC[C@@H]1NC(=O)[C@H](CC(=O)O)N(Cc2ccc(Cl)cc2Oc2ccc(-c3cnc(CN(C)C)n3C)cc2)C(=O)C[C@@H](Cc2ccccc2)C(=O)N(C)[C@@H](C)CNC(=O)C[C@H](Cc2ccc(Cl)cc2)N(C)C1=O [Compound 82, 2-((2S,5S,8S,13S,16R)-16-benzyl-1-(4-chloro-2-(4-(2-((dimethylamino)methyl)-1-methyl-1H-imidazol-5-yl)phenoxy)benzyl)-8-(4-chlorobenzyl)-5-(methoxymethyl)-7,13,14-trimethyl-3,6,10,15,18-pentaoxo-1,4,7,11,14-pentaazacyclooctadecan-2-yl)acetic acid]	99.99	1.3
COC[C@@H]1NC(=O)[C@H](C)N(Cc2ccc(Cl)cc2Oc2ccc(-c3nnc4n3CCN(C(=O)[C@H]3CCNC3)C4)cc2)C(=O)C[C@@H](Cc2ccccc2)C(=O)N(C)[C@@H](C)CNC(=O)C[C@H](Cc2ccc(Cl)cc2)N(C)C1=O [Compound 131, (2S,5S,8S,13S,16R)-16-benzyl-1-(4-chloro-2-(4-(7-((S)-pyrrolidine-3-carbonyl)-5,6,7,8-tetrahydro-[1,2,4]triazolo[4,3-a]pyrazin-3-yl)phenoxy)benzyl)-8-(4-chlorobenzyl)-5-(methoxymethyl)-2,7,13,14-tetramethyl-1,4,7,11,14-pentaazacyclooctadecane-3,6,10,15,18-pentaone]	90.72	9.9
COC[C@@H]1NC(=O)[C@H](C)N(Cc2c(F)ccc(F)c2Oc2ccc(-c3cnc(CN(C)C)n3C)cc2)C(=O)C[C@@H](Cc2ccccc2)C(=O)N(C)[C@@H](C)CNC(=O)C[C@H](Cc2ccc(Cl)cc2)N(C)C1=O [Compound 166, (2S,5S,8S,13S,16R)-16-benzyl-8-(4-chlorobenzyl)-1-(2-(4-(2-((dimethylamino)methyl)-1-methyl-1H-imidazol-5-yl)phenoxy)-3,6-difluorobenzyl)-5-(methoxymethyl)-2,7,13,14-tetramethyl-1,4,7,11,14-pentaazacyclooctadecane-3,6,10,15,18-pentaone]	96.70	4.3
COC[C@@H]1NC(=O)[C@H](C)N(Cc2ccc(Cl)cc2Oc2ccc(-c3cnc(CN4CCCC4)n3C)cc2)C(=O)C[C@@H](Cc2ccc(F)c(F)c2)C(=O)N(C)[C@@H](C)CNC(=O)C[C@H](Cc2ccc(Cl)cc2)N(C)C1=O [Compound 165, (2S,5S,8S,13S,16R)-1-(4-chloro-2-(4-(1-methyl-2-(pyrrolidin-1-ylmethyl)-1H-imidazol-5-yl)phenoxy)benzyl)-8-(4-chlorobenzyl)-16-(3,4-difluorobenzyl)-5-(methoxymethyl)-2,7,13,14-tetramethyl-1,4,7,11,14-pentaazacyclooctadecane-3,6,10,15,18-pentaone]	92.29	5.6
COC[C@@H]1NC(=O)[C@@H](C)N(Cc2ccc(Cl)cc2Oc2ccc(-c3cnc(CN(C)C)n3C)cc2)C(=O)C[C@@H](Cc2ccccc2)C(=O)N(C)[C@H]2CCOC[C@@H]2NC(=O)C[C@H](Cc2ccc(Cl)cc2)N(C)C1=O [Compound 294, (4S,7S,10R,14R,16aS,20aR)-14-benzyl-11-(4-chloro-2-(4-(2-((dimethylamino)methyl)-1-methyl-1H-imidazol-5-yl)phenoxy)benzyl)-4-(4-chlorobenzyl)-7-(methoxymethyl)-5,10,16-trimethyltetradecahydro-1H-pyrano[3,4-l][1,4,7,11,14]pentaazacyclooctadecine-2,6,9,12,15(3H)-pentaone]	55.44	105
COC[C@@H]1NC(=O)[C@H](C)N(Cc2ccc(Cl)cc2Oc2ccc(-c3cnc(CN4CCCC4)n3C)c(C)c2)C(=O)C[C@@H](Cc2ccccc2)C(=O)N(C)[C@@H](C)CNC(=O)C[C@H](Cc2ccc(Cl)cc2)N(C)C1=O [Compound 281, (2S,5S,8S,13S,16R)-16-benzyl-1-(4-chloro-2-(3-methyl-4-(1-methyl-2-(pyrrolidin-1-ylmethyl)-1H-imidazol-5-yl)phenoxy)benzyl)-8-(4-chlorobenzyl)-5-(methoxymethyl)-2,7,13,14-tetramethyl-1,4,7,11,14-pentaazacyclooctadecane-3,6,10,15,18-pentaone]	89.62	1

Other lines, results leading:

Max % inhibition [%]	IC50 [nM]	Structure (SMILES)
104.58	0.8	COC[C@@H]1NC(=O)[C@H](CCC(=O)N2CC3(COC3)C2)N(Cc2ccc(Cl)cc2Oc2ccc(-c3cnc(CN(C)C)n3C)cc2)C(=O)C[C@@H](Cc2ccccc2)C(=O)N(C)[C@@H](C)CNC(=O)C[C@H](Cc2ccc(Cl)cc2)N(C)C1=O [Compound 95, (2S,5S,8S,13S,16R)-16-benzyl-1-(4-chloro-2-(4-(2-((dimethylamino)methyl)-1-methyl-1H-imidazol-5-yl)phenoxy)benzyl)-8-(4-chlorobenzyl)-5-(methoxymethyl)-7,13,14-trimethyl-2-(3-oxo-3-(2-oxa-6-azaspiro[3.3]heptan-6-yl)propyl)-1,4,7,11,14-pentaazacyclooctadecane-3,6,10,15,18-pentaone]
83.22	2.5	C=CC[C@@H]1CC(=O)N(Cc2ccc(Cl)cc2Oc2ccc(-c3cnc(CN(C)C)n3C)cc2)[C@@H](CCCN2CCOCC2)C(=O)N[C@@H](COC)C(=O)N(C)[C@@H](Cc2ccc(Cl)cc2)CC(=O)N[C@H]2CCCC[C@@H]2N(C)C1=O [Compound 277, (4S,7S,10S,14R,16aS,20aS)-14-allyl-11-(4-chloro-2-(4-(2-((dimethylamino)methyl)-1-methyl-1H-imidazol-5-yl)phenoxy)benzyl)-4-(4-chlorobenzyl)-7-(methoxymethyl)-5,16-dimethyl-10-(3-morpholinopropyl)hexadecahydrobenzo[l][1,4,7,11,14]pentaazacyclooctadecine-2,6,9,12,15(3H)-pentaone]
103.17	0.9	COC[C@@H]1NC(=O)[C@H](CCCN2CCCC2)N(Cc2ccc(Cl)cc2Oc2ccc(-c3cnc(CN(C)C)n3C)cc2)C(=O)C[C@@H](Cc2cccc[n+]2[O-])C(=O)N(C)[C@H]2CCCC[C@@H]2NC(=O)C[C@H](Cc2ccc(Cl)cc2)N(C)C1=O [Compound 111, 2-(((4S,7S,10S,14R,16aS,20aS)-11-(4-chloro-2-(4-(2-((dimethylamino)methyl)-1-methyl-1H-imidazol-5-yl)phenoxy)benzyl)-4-(4-chlorobenzyl)-7-(methoxymethyl)-5,16-dimethyl-2,6,9,12,15-pentaoxo-10-(3-(pyrrolidin-1-yl)propyl)docosahydrobenzo[l][1,4,7,11,14]pentaazacyclooctadecin-14-yl)methyl)pyridine 1-oxide]
50.23	21.3	C[C@H]1CNC(=O)C[C@H](Cc2ccc(Cl)cc2)N(C)C(=O)[C@H](CCF)NC(=O)[C@H](C)N(Cc2ccc(Cl)cc2Oc2ccc(-c3cnc(CN4CCCC4)n3C)cc2)C(=O)C[C@@H](Cc2ccccc2)C(=O)N1C [Compound 257, (2S,5S,8S,13S,16R)-16-benzyl-1-(4-chloro-2-(4-(1-methyl-2-(pyrrolidin-1-ylmethyl)-1H-imidazol-5-yl)phenoxy)benzyl)-8-(4-chlorobenzyl)-5-(2-fluoroethyl)-2,7,13,14-tetramethyl-1,4,7,11,14-pentaazacyclooctadecane-3,6,10,15,18-pentaone]
98.30	1.2	COC[C@@H]1NC(=O)[C@H](CCCN2CCOCC2)N(Cc2ccc(Cl)cc2Oc2ccc(-c3cnc(CN(C)C)n3C)cc2)C(=O)C[C@@H](Cc2ccccc2)C(=O)N(C)[C@H]2CCCC[C@@H]2NC(=O)C[C@H](Cc2ccc(Cl)cc2)N(C)C1=O [Compound 272, (4S,7S,10S,14R,16aS,20aS)-14-benzyl-11-(4-chloro-2-(4-(2-((dimethylamino)methyl)-1-methyl-1H-imidazol-5-yl)phenoxy)benzyl)-4-(4-chlorobenzyl)-7-(methoxymethyl)-5,16-dimethyl-10-(3-morpholinopropyl)hexadecahydrobenzo[l][1,4,7,11,14]pentaazacyclooctadecine-2,6,9,12,15(3H)-pentaone]
